This note sets out measurements from patent US7247626B2, “Pyrazolopyrimidine derivatives and pharmaceutical compositions containing them” (SmithKline Beecham Corporation, priority 2002, dated 2007).

Broadly, the IC50 is the concentration that gives 50% inhibition. A lower IC50 goes with greater potency in that assay.

The structures appear in SMILES notation.

For the assay, the system named is HSV-1. As to the kind of experiment: HSV-1 infection of Vero 76 cells, viral DNA hybridization capture assay. Format: cell-based. Conditions: Human alphaherpesvirus 1; HSV-1 (MOI=0.001) in Vero 76 cells, 40–48 hours incubation, HSV DNA hybridization with chemiluminescence detection. On the procedure:
Vero 76 cells were maintained in MEM with Earle's salts, L-glutamine, 8% FBS (Hyclone, A-1111-L) and 100 units/mL Penicillin-100 μg/mL Streptomycin. For assay conditions, FBS was reduced to 2%. Cells are seeded into 96-well tissue culture plates at a density of 5×10^4 cells/well after being incubated for 45 min at 37° C. in the presence of HSV-1 or HSV-2 (MOI=0.001). Test compounds are added to the wells and the plates are incubated at 37° C. for 40–48 hours. Cell lysates are prepared as follows: media was removed and replaced with 150 μL/well 0.2 N NaOH with 1% Igepal CA 630 or NP-40. Plates were incubated up to 14 days at room temperature in a humidified chamber to prevent evaporation.
For the detection probe, a gel-purified, digoxigenin-labeled, […] PCR fragment of the HSV UL-15 sequence was utilized. PCR conditions included 0.5 μM primers, 180 μM dTTP, 20 μM dUTP-digoxigenin (Boehringer Mannheim 1558706), 200 μM each of dATP, dCTP, and dGTP, 1×PCR Buffer II (Perkin Elmer), 2.5 mM, MgCl2, 0.025 units/μL of AmpliTaq Gold polyerase (Perkin Elmer), and 5 ng a gel-purified HSV DNA per 100 μL Extension conditions were 10 min at 95° C., followed by 30 cycles of 95° C. for 1 min, 55° C. for 30 sec, and 72° C. for 2 min. The amplification was completed with a 10-min incubation at 72° C. Primers were selected to amplify a 728 bp probe spanning a section of the HSV1 UL15 open reading frame (nucleotides 249–977). Single-stranded transcripts were purified with Promega M13 Wizard kits. The final product was mixed 1:1 with a mixture of 6 M GuSCN, 100 mM EDTA and 200 μg/mL herring sperm DNA and stored at 4° C.
The capture DNA plasmid (HSV UL13 region in pUC) was linearized by cutting with Xba I, denatured for 15 min at 95° C. and diluted immediately into Reacti-Bind DNA Coating Solution (Pierce, 17250, diluted 1:1 with TE buffer, pH 8) at 1 ng/μL 75 μl/well were added to Corning (#3922 or 9690) white 96-well plates and incubated at room temperature for at least 4 hrs before washing twice with 300 μL/well 0.2×SSC/0.05% Tween-20 (SSC/T buffer). The plates were then incubated overnight at room temperature with 150 μL/well 0.2 N NaOH, 1% IGEPAL and 10 μg/mL herring sperm DNA.
Twenty-seven (27) μL of cell lysate was combined with 45 μL of hydridization solution (final concentration: 3M GuSCN, 50 mM EDTA, 100 μg/ml salmon sperm DNA, 5× Denhardt's solution, 0.25× APE, and 5 ng of the digoxigenin-labeled detection probe). APE is 1.5 M NH4-acetate, 0.15 M NH4H2phosphate, and 5 mM EDTA adjusted to pH 6.0. Mineral oil (50 μL) was added to prevent evaporation. The hybridization plates were incubated at 95° C. for 10 minutes to denature the DNA, then incubated at 42° C. overnight. The wells were washed 6× with 300 μL/well SSC/T buffer then incubated with 75 μL/well anti-digoxigenin-HRP-conjugated antibody (Boehringer Mannheim 1207733, 1:5000 in TE) for 30 min at room temperature. The wells were washed 6× with 300 μL/well with PBS/0.05% Tween-20 before 75 μL/well SuperSignal LBA substrate (Pierce) was added. The plates were incubated at room temperature for 30 minutes and chemiluminescence was measured in a Wallac Vietor reader.
The following results were obtained for HSV-1.

`CC(C)COc1ccc(-c2nn3c(NC4CCCC4)nccc3c2-c2ccnc(NC3CCCC3)n2)cc1` [Example 26, N-Cyclopentyl-3-[2-(cyclopentylamino)pyrimidin-4-yl]-2-(4-isobutoxyphenyl)pyrazolo[1,5-c]pyrimidin-7-amine]: it took 500 nM to reach half-maximal inhibition (IC50).

Regarding `COCCOc1ccc(-c2nn3c(NC4CCCC4)nccc3c2-c2ccnc(NC3CCCC3)n2)cc1` [Example 27, N-Cyclopentyl-3-[2-(cyclopentylamino)pyrimidin-4-yl]-2-[4-(2-methoxyethoxy)phenyl]pyrazolo[1,5-c]pyrimidin-7-amine], the IC50 was 1000 nM.

`CCCOc1ccc(-c2nn3c(NC4CCCC4)nccc3c2-c2ccnc(NC3CCCC3)n2)cc1` [Example 28, N-Cyclopentyl-3-[2-(cyclopentylamino)pyrimidin-4-yl]-2-(4-propoxyphenyl)pyrazolo[1,5-c]pyrimidin-7-amine] had an IC50 of 500 nM.

In turn, `CC(C)(C)Nc1nccc2c(-c3ccnc(NC4CCCC4)n3)c(-c3ccc(F)cc3)nn12` [Example 29, N-(tert-Butyl)-3-[2-(cyclopentylamino)pyrimidin-4-yl]-2-(4-fluorophenyl)pyrazolo[1,5-c]pyrimidin-7-amine] registered an IC50 of 7000 nM.

Turning to `Fc1ccc(-c2nn3c(N4CCCC4)nccc3c2-c2ccnc(NC3CCCC3)n2)cc1` [Example 30, N-Cyclopentyl-4-[2-(4-fluorophenyl)-7-pyrrolidin-1-ylpyrazolo[1,5-c]pyrimidin-3-yl]pyrimidin-2-amine], inhibition was half-maximal at 2000 nM (IC50).

For the compound `Fc1ccc(-c2nn3c(N4CCCCC4)nccc3c2-c2ccnc(NC3CCCC3)n2)cc1` [Example 31, N-Cyclopentyl-4-[2-(4-fluorophenyl)-7-piperidin-1-ylpyrazolo[1,5-c]pyrimidin-3-yl]pyrimidin-2-amine], it took 1000 nM to reach half-maximal inhibition (IC50).
